The term IC50 denotes the concentration that inhibits the measured activity by half.

The nature of data set [1]: Cytotoxicity against LPS-stimulated mouse BV2 cells assessed as cell survival after 24 hrs by MTT assay relative to control. Format: cell-based, BV-2. Further details: concentration or dose not given beside the values. The conditions noted are these: read-out: Survival. For orientation: Tetrazolium dyes change colour on reduction, which living cells bring about.
The nature of data set [2]: Cytotoxicity against mouse BV2 cells assessed as cell survival after 24 hrs by MTT assay relative to control. The data set is classed as cell-based, BV-2. The conditions noted are these: read-out: Survival. Further details: concentration or dose not given beside the values.
A further data set concerns BV-2. Description: Anti-inflammatory activity in mouse BV2 cells assessed as reduction in LPS-induced NO production pre-treated before LPS stimulation for 24 hrs by Griess reagent-based assay. The data set is classed as functional, cell-based. A general note: The Griess reaction detects nitrite, a stable product of nitric oxide.

Take `O=C1C=CC2(C=C1)OCC(Cc1cccc(Br)c1)C(=O)N2c1ccccc1` (stereo unspecified): the figures for the viability at 24 h in data set [1] and in data set [2] were 74% and 96%, respectively. Moreover, in the data set with BV-2, the IC50 worked out at 540 nM.

With `O=C1C=CC2(C=C1)OCC(Cc1cc(C(F)(F)F)ccc1Cl)C(=O)N2c1ccccc1` (stereo unspecified), the viability at 24 h came out at 64.4% in data set [1] and 70.5% in data set [2]. Besides, the IC50 with BV-2 came to 770 nM.

Take `Cc1cc(C)cc(CC2COC3(C=CC(=O)C=C3)N(c3ccccc3)C2=O)c1` (stereo unspecified): the viability at 24 h is 78% in data set [1] and 94.2% in data set [2]. In addition, the IC50 with BV-2 worked out at 1820 nM.

For `O=C1C=CC2(C=C1)OCC(Cc1ccc(C(F)(F)F)cc1)C(=O)N2c1ccccc1` (stereo unspecified), the viability at 24 h in data set [1] came out at 84.1%; in data set [2], 87.1%. The IC50 in the data set on BV-2 came out at 1650 nM.

With `CNC(=N)NCCC[C@H](N)C(=O)O` [TILARGININE], in data set [1], the viability at 24 h came out at 60.5%. Moreover, the IC50 in the data set on BV-2 came out at 16000 nM.

Consider `C=CCCC1COC2(C=CC(=O)C=C2)N(c2ccccc2)C1=O` (stereo unspecified), for which the viability at 24 h in data set [1] turned out to be 80.4%; in data set [2], 89%. The IC50 with BV-2 amounted to 730 nM.

Take `CC1COC2(C=CC(=O)C=C2)N(c2ccccc2)C1=O` (stereo unspecified): the figures for the viability at 24 h in data set [1] and in data set [2] were 72.8% and 86.1%, respectively. Also, in the data set with BV-2, the IC50 amounted to 1220 nM.

As to `O=C1C=CC2(C=C1)OCC(Cc1ccc(Br)cc1)C(=O)N2c1ccccc1` (stereo unspecified), the viability at 24 h in data set [1] worked out at 72%; in data set [2], 82.7%. The IC50 in the data set on BV-2 worked out at 1380 nM.

With `O=C1C=CC2(C=C1)OCC(Cc1ccccc1)C(=O)N2c1ccccc1` (stereo unspecified), the results for the viability at 24 h in data set [1] and in data set [2] were 76.1% and 82.1%, respectively. In the data set with BV-2, the IC50 amounted to 570 nM.

For `O=C1C=CC2(C=C1)OCC(Cc1c(F)cccc1C(F)(F)F)C(=O)N2c1ccccc1` (stereo unspecified), the viability at 24 h came out at 71.1% in data set [1] and 84.4% in data set [2]. In addition, the IC50 in the data set with BV-2 was 600 nM.

Regarding `C=C(C)CC1COC2(C=CC(=O)C=C2)N(c2ccccc2)C1=O` (stereo unspecified), the viability at 24 h turned out to be 80.1% in data set [1] and 91.4% in data set [2]. For the same compound, the IC50 with BV-2 stood at 450 nM.

For `O=C1C=CC2(C=C1)OCC(Cc1ccc(C(F)(F)F)cc1[N+](=O)[O-])C(=O)N2c1ccccc1` (stereo unspecified), the IC50 in the data set on BV-2 is 970 nM.

On to `O=C1C=CC2(C=C1)OCCC(=O)N2c1ccccc1`, for which the viability at 24 h in data set [1] stood at 79.8%; in data set [2], 102%. Further, the IC50 in the data set on BV-2 worked out at 1300 nM.

As for `O=C1C=CC2(C=C1)OCC(Cc1ccccc1CS(=O)(=O)c1ccccc1)C(=O)N2c1ccccc1` (stereo unspecified), the viability at 24 h in data set [1] is 84.3%; in data set [2], 97.5%. Moreover, the IC50 in the data set on BV-2 stood at 980 nM.

Take `O=C1C=CC2(C=C1)OCC(Cc1ccc(F)cc1)C(=O)N2c1ccccc1` (stereo unspecified): the viability at 24 h was determined as 85.2% in data set [1] and 82.9% in data set [2]. In addition, in the data set on BV-2, the IC50 was 400 nM.

As to `O=C1C=CC2(C=C1)OCC(Cc1ccc([N+](=O)[O-])cc1)C(=O)N2c1ccccc1` (stereo unspecified), the values for the viability at 24 h in data set [1] and in data set [2] were 82.7% and 95.5%, respectively. Further, in the data set on BV-2, the IC50 turned out to be 430 nM.

In the case of `C=CCC1COC2(C=CC(=O)C=C2)N(c2ccccc2)C1=O` (stereo unspecified), the viability at 24 h in data set [1] was found to be 84.6%; in data set [2] it was 89.7%. The IC50 in the data set with BV-2 came to 1030 nM.

`O=C1C=CC2(C=C1)OCC(Cc1ccc(Cl)cc1)C(=O)N2c1ccccc1` (stereo unspecified): the results for the viability at 24 h in data set [1] and in data set [2] were 79% and 91%, respectively. Also, the IC50 in the data set on BV-2 is 540 nM.

(Values after ChEMBL document CHEMBL4411276, “Chemistry-oriented synthesis (ChOS) and target deconvolution on neuroprotective effect of a novel scaffold, oxaza spiroquinone” (Eur J Med Chem, 2019).)
